Laboratory results reported in PMC7397269, “Synthesis and Evaluation of New Coumarin Derivatives as Antioxidant, Antimicrobial, and Anti-Inflammatory Agents” (Molecules, 2020).
pIC50: −log10 of the molar value. Values after ≈ are worked out from the molar mass of the structure shown. Like-named read-outs stand apart in the source and are kept apart here.

Tests used:
[1] = DPPH antioxidant assay (radical scavenging); assay type: biochemical; conditions: mean ± SD (n = 3)
Protocol: The antioxidant effects of the synthesised compounds were assessed using the 2,2-diphenyl-1-picrylhydrazyl (DPPH) antioxidant assay. Table 1 summarises the antioxidant effects of the test samples and ascorbic acid except for compound 5b because it was produced in poor yield.
The radical scavenging activity of the synthesised compounds was measured using the DPPH microplate-based method. The absorbance was measured using a microplate/cuvette reader (Spectramax M5, Molecular Devices, San Jose, CA, USA). Reference standard ascorbic acid was utilised as the positive control for this assay. Test samples were prepared at a starting concentration of 200 μg/mL after mixing with 100 μL of 0.2 mM DPPH methanolic solution. […] Samples were incubated with DPPH in the dark for 30 min at room temperature (25 °C). The methanolic DPPH solution was prepared daily and stored in a flask covered with aluminium foil. DPPH radicals have an absorption maximum (λmax) at 515 nm, at which the absorbance values were measured and converted into a percentage of antioxidant activity.
The methanolic DPPH solution without antioxidants was used as a control, and samples in methanol alone served as a background control. IC50 was determined using GraphPad Prism 7 (GraphPad Software Inc., San Diego, CA, USA). The percent inhibition was calculated using the following Equation (1):(1) % Inhibition=100−Sample Absorbance −Sample background Absorbance/DPPH only Absorbance×100
The assay was carried out in triplicate and performed as much as possible in an area protected against light. The data points are presented as the mean ± standard deviation (SD, n = 3).

[2] = tested on: Staphylococcus aureus ATCC 29213; assay: Agar well diffusion, S. aureus; assay type: cell-based; conditions: ATCC29213, 100 μL of 10 mg/mL in DMSO, read-out: diameter of inhibition zone, SA
Excerpt: (§1) The new molecules were individually tested for their antimicrobial activity in vitro against standard bacteria strains from the American Type Culture Collection (ATCC), namely, Staphylococcus aureus ATCC 29213, Bacillus subtilis ATCC 6633, Bacillus megaterium ATCC 9885 (Gram-positive), Escherichia coli ATCC 2592, and Pseudomonas aeruginosa ATCC 27,953 (Gram-negative). The compounds were also microbiologically tested against locally isolated Saccharomyces cerevisiae (yeast) and the standard Agricultural Research Service Culture Collection (NRRL) strain of the yeast-like pathogenic fungus Candida albicans NRRL Y-477. Primary screening was conducted using the agar well diffusion method using nutrient agar (NA) medium and Sabourand dextrose agar (SDA) medium for the tested pathological bacteria and yeast, respectively. […].
(§2) Antimicrobial tests were conducted via the agar well diffusion method using 100 μL of suspension containing 1 × 10^8 CFU/mL pathological tested bacteria and 1 × 10^6 CFU/mL yeast spread on NA and SDA, respectively. After the media cooled and solidified, wells (10 mm in diameter) were made in the solidified agar and loaded with 100 μL of the tested compound solution prepared by dissolving 10 mg of the chemical compound in 1 mL dimethyl sulfoxide (DMSO). The inoculated plates were then incubated for 24 h at 37 °C for bacteria and yeast growth. DMSO served as negative control. Ciprofloxacin (10 mg/mL) and ketoconazole (10 mg/mL) were used as standards for antibacterial and antifungal activity, respectively. After incubation, antimicrobial activity was evaluated by measuring the zone of inhibition against the test organisms and compared with that of the standard. Antimicrobial activities were expressed as the diameter of the inhibition zone (IZ) in mm. The experiment was carried out in triplicate and the average zone of inhibition was calculated.

[3] = tested on: Bacillus subtilis ATCC 6633; assay: Agar well diffusion, B. subtilis; assay type: cell-based; conditions: ATCC6633, 100 μL of 10 mg/mL in DMSO, read-out: diameter of inhibition zone, BS
Excerpt: as §1, §2

[4] = tested on: Bacillus megaterium ATCC 9885; assay: Agar well diffusion, B. megaterium; assay type: cell-based; conditions: Priestia megaterium, ATCC9885, 100 μL of 10 mg/mL in DMSO, read-out: diameter of inhibition zone, BM
Excerpt: as §1, §2

[5] = tested on: Escherichia coli ATCC 2592; assay: Agar well diffusion, E. coli; assay type: cell-based; conditions: ATCC2592, 100 μL of 10 mg/mL in DMSO, read-out: diameter of inhibition zone, EC
Excerpt: as §1, §2

[6] = tested on: Pseudomonas aeruginosa ATCC 27,953; assay: Agar well diffusion, P. aeruginosa; assay type: cell-based; conditions: ATCC27, 100 μL of 10 mg/mL in DMSO, read-out: diameter of inhibition zone, PA
Excerpt: as §1, §2

[7] = tested on: Saccharomyces cerevisiae local isolate; assay: Agar well diffusion, S. cerevisiae; assay type: cell-based; conditions: read-out: diameter of inhibition zone, SC
Excerpt: as §1, §2

[8] = tested on: Candida albicans NRRL Y-477; assay: Agar well diffusion, C. albicans; assay type: cell-based; conditions: NRRLY477, 100 μL of 10 mg/mL in DMSO, read-out: diameter of inhibition zone, CA
Excerpt: as §1, §2

[9] = tested on: Saccharomyces cerevisiae local isolate; assay: MIC, two-fold serial dilution, S. cerevisiae; assay type: cell-based; conditions: read-out: Minimum inhibitory concentration, SC
Excerpt: as §1
(§3) The bacteriostatic activity of the active compounds (having IZ > 16 mm) was then evaluated using the two-fold serial dilution technique. Two-fold serial dilutions of the tested compounds solutions were prepared using the proper nutrient broth to reach final concentrations of 1000, 500, 250, and 125 μg/mL. The tubes were then inoculated with the test microorganisms grown in their suitable broth at 37 °C for 24 h (1 × 10^8 CFU/mL for bacteria and 1 × 10^6 CFU/mL of yeast), 0.1 mL of the above inoculum was administered per 5 mL, and the tubes were incubated at 37 °C for 24 h. The lowest concentration showing no growth was taken as the MIC.

[10] = tested on: Candida albicans NRRL Y-477; assay: MIC, two-fold serial dilution, C. albicans; assay type: cell-based; conditions: NRRLY477, read-out: Minimum inhibitory concentration, CA
Excerpt: as §1, §3

[11] = tested on: trypsin; assay: Proteinase-inhibitory activity; assay type: biochemical; conditions: 250 µg/mL; mean ± SD (n = 3)
Protocol: The newly synthesised compounds were individually tested for their in vitro anti-inflammatory activity against proteinase enzyme. […] This test was performed at the Pharmacology Department, Medical Research Division, National Research Centre, Cairo, Egypt. Furthermore, compounds 2–8 were evaluated for their COX1/COX2 inhibitory activities.
The test was performed according to El-Serwy et al. with minor modifications. The reaction mixture (2 mL) contained 0.06 mg trypsin, 20 mM Tris HCl buffer (pH 7.4), and 1 mL test sample (250 µg/mL for each compound). After incubating for 5 min, 1 mL of 0.8% (w/v) casein was added. The mixture was incubated for an additional 20 min. The reaction was arrested by adding 1 mL of 10% perchloric acid. The cloudy suspension was centrifuged, and the absorbance of the supernatant was read at 280 nm. Reference standard aspirin was used as the positive control. The experiment was performed in triplicate. The percent inhibition of protein denaturation was calculated using the following Equation (2):(2) % Inhibition=100−A control −A test/A control×100 where Acontrol and Atest represent the absorbance of the control reaction without and with the sample, respectively.

[12] = target: T1, COX-1 (Homo sapiens, UniProt P23219); assay: COX-1 inhibition, Cayman assay kit; assay type: biochemical; conditions: mean of two determinations
T1 construct: purchased Cayman Chemical 701070
T1 sequence (P23219 24-599): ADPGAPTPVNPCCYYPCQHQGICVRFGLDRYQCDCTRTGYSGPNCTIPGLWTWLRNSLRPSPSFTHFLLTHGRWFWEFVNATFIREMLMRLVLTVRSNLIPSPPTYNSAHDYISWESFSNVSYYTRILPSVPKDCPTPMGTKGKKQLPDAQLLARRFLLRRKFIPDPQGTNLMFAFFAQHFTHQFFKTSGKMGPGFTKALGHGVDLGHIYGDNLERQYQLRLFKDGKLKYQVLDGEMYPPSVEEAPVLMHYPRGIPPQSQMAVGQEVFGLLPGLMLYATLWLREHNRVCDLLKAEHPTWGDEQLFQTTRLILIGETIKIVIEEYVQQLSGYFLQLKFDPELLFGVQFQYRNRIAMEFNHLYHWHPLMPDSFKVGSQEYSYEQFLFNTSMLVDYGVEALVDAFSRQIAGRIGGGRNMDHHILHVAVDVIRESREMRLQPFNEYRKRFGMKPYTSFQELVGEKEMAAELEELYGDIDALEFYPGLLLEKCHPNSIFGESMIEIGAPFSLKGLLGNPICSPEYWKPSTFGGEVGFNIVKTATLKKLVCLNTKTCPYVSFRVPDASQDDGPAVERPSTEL

[13] = target: T2, COX-2 (Homo sapiens, UniProt P35354); assay: COX-2 inhibition, Cayman assay kit; assay type: biochemical; conditions: for pIC50: mean of two determinations; for SI, selectivity index (COX-1/COX-2): ratio of COX-1/COX-2 IC50
T2 construct: purchased Cayman Chemical 701080
T2 sequence (P35354 18-604): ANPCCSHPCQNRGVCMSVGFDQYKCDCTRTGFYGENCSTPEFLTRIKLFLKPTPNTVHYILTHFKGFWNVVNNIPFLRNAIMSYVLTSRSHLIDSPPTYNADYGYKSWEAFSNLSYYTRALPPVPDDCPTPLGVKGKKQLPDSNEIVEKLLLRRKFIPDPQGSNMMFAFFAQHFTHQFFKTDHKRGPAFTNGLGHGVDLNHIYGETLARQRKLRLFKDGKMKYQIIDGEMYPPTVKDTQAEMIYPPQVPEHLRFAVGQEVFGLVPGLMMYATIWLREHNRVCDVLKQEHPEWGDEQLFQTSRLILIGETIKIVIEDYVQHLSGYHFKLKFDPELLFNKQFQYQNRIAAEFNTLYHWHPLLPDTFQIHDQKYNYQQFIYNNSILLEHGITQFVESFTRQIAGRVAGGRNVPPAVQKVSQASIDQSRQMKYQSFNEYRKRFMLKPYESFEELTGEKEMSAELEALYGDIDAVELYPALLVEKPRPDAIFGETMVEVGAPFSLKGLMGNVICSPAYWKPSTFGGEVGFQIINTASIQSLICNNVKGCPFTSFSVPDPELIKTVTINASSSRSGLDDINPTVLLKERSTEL

[14] = tested on: Staphylococcus aureus ATCC 29213; assay: MIC, two-fold serial dilution, S. aureus; assay type: cell-based; conditions: ATCC29213, read-out: Minimum inhibitory concentration, SA
Excerpt: as §1, §3

Compound	IC50 [1]	zone of inhibition at 10000 µg/mL [2]	zone of inhibition at 10000 µg/mL [3]	zone of inhibition at 10000 µg/mL [4]	zone of inhibition at 10000 µg/mL [5]	zone of inhibition at 10000 µg/mL [6]	zone of inhibition at 10000 µg/mL [7]	zone of inhibition at 10000 µg/mL [8]	MIC [9]	MIC [10]	% Inhibition (proteinase) [11]	pIC50 [12]	pIC50 [13]	SI, selectivity index (COX-1/COX-2) [13]	melting point	MIC [14]	zone of inhibition at 10000 µg/mL ([7]; well diffusion, 100 μL of 10 mg/mL in DMSO, S. cerevisiae)	MIC ([9]; two-fold serial dilution, S. cerevisiae)
Cc1ccc2oc(=O)c3c(c2c1)OC(N)=C(C(N)=O)C3c1ccco1 (racemic) [3b, (±)-2-Amino-4-(furan-2-yl)-9-methyl-5-oxo-4H,5H-pyrano[3,2-c]chromene-3-carboxamide]	48.38 ± 4.616 µg/mL (≈ 143 µM)	16 mm	< 15 mm	< 15 mm	16 mm	16 mm	17 mm	18 mm	1000 µg/mL (≈ 2960 µM)	1000 µg/mL (≈ 2960 µM)	49.28 ± 10.93%	5.11	5.61	3.16	202 to 204 °C	–	–	–
COc1cc(/C=N/C2=C(C#N)C(c3ccco3)c3c(c4cc(C)ccc4oc3=O)O2)cc(OC)c1OC (racemic) [5d, (±)-4-(furan-2-yl)-9-methyl-5-oxo-2-((3,4,5-trimethoxybenzylidene)amino)-4H,5H-pyrano[3,2-c]chromene-3-carbonitrile]	82.92 ± 3.300 µg/mL (≈ 166 µM)	18 mm	< 15 mm	< 15 mm	< 15 mm	< 15 mm	19 mm	19 mm	1000 µg/mL (≈ 2010 µM)	1000 µg/mL (≈ 2010 µM)	43.4 ± 1.52%	4.57	4.79	1.7	248 to 250 °C	1000 µg/mL (≈ 2010 µM)	–	–
Cc1ccc2oc(=O)c3c(c2c1)OC(/N=C/c1ccc(Cl)cc1Cl)=C(C#N)C3c1ccc([N+](=O)[O-])cc1 (racemic) [5e, (±)-2-((2,4-dichlorobenzylidene)amino)-9-methyl-4-(4-nitrophenyl)-5-oxo-4H,5H-pyrano[3,2-c]chromene-3-carbonitrile]	— ((—): inactive (IC50 > 200 μg/mL))	16 mm	16 mm	16 mm	15 mm	15 mm	22 mm	20 mm	500 µg/mL (≈ 939 µM)	500 µg/mL (≈ 939 µM)	45.78 ± 1.62%	4.68	5.08	2.52	236 to 238 °C	–	–	–
CC(=O)N1CCN(c2ccc(OCC3COC(Cn4ccnc4)(c4ccc(Cl)cc4Cl)O3)cc2)CC1 (stereo not shown) [Ketoconazole, reference compound]	–	< 15 mm	< 15 mm	< 15 mm	< 15 mm	< 15 mm	–	28 mm	–	125 µg/mL (≈ 235 µM)	–	–	–	–	–	–	30 mm	125 µg/mL (≈ 235 µM)
